Reference: patent publication US9908886B2 (Agency for Science, Technology and Research, priority 2012, dated 2018)
pIC50: −log10 of the molar value. Counter-ions that a name gives are not always drawn. Like-named read-outs stand apart in the source and are kept apart here.

Columns and labels:
MNK2 = MNK2 (Homo sapiens (Human), UniProt Q9HBH9); assay: In vitro MNK kinase assay (Caliper LabChip mobility shift); type: biochemical
MNK1 = MNK1 (Homo sapiens, UniProt Q9BUB5); assay: as above; type: biochemical
[1] = enzymatic, 250 μM ATP, read-out: IC50 Mnk2
[2] = enzymatic, 1.2 mM ATP, read-out: IC50 Mnk1

Sequence of MNK2 (Q9HBH9 84-388): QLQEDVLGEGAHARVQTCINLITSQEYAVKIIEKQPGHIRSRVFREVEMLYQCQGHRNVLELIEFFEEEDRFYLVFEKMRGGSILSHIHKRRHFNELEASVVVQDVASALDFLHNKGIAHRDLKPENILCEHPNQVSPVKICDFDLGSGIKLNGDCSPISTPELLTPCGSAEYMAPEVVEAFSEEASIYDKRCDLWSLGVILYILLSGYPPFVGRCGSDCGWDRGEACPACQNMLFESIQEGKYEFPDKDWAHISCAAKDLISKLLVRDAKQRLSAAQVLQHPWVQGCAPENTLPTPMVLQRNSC

Row | pIC50 (MNK2; [1]) | pIC50 (MNK1; [2]) | Compound | pIC50 (MNK2) | pIC50 (MNK1)
1 | > 7.00 | > 7.00 | N#Cc1ccc(-c2cnc3ccc(-c4ccc(C(=O)N5CCC(O)CC5)cc4)nn23)cc1 [Example 55, 4-(6-(4-(4-hydroxypiperidine-1-carbonyl)phenyl)imidazo[1,2-b]pyridazin-3-yl)benzonitrile] |  | 
2 | > 7.00 | > 7.00 | Cc1cc(-c2cn3c(-c4ccc(C#N)cc4)cnc3cn2)ccc1C(=O)N1CCC(C)(N)CC1 [Example 28, 4-(6-(4-(4-amino-4-methylpiperidine-1-carbonyl)-3-methylphenyl)imidazo[1,2-a]pyrazin-3-yl)benzonitrile] |  | 
3 | > 7.00 | > 7.00 | N#Cc1ccc(-c2cnc3ccc(-c4ccc(C(=O)N5CCC(N6CCOCC6)CC5)cc4)cn23)cc1 [Example 134, 4-(6-(4-(4-morpholinopiperidine-1-carbonyl)phenyl)imidazo[1,2-a]pyridin-3-yl)benzonitrile] |  | 
4 | > 7.00 | > 7.00 | N#Cc1ccc(-c2cnc3ccc(-c4ccc(C(=O)N5CCN(C(=O)c6ccccc6)CC5)cc4)cn23)cc1 [Example 126, 4-(6-(4-(4-benzoylpiperazine-1-carbonyl)phenyl)imidazo[1,2-a]pyridin-3-yl)benzonitrile] |  | 
5 |  |  | N#Cc1ccc(-n2cnc3ccc(-c4ccc(C(=O)N5CCOCC5)cc4)cc32)cc1 [Example 190, 4-(6-(4-(morpholine-4-carbonyl)phenyl)-1H-benzo[d]imidazol-1-yl)benzonitrile] | > 6.00 | > 6.00
6 | > 6.00 | > 6.00 | CN1CCN(C(=O)c2ccc(-c3cn4c(-c5ccc(C#N)cc5)cnc4cn3)c(O)c2)CC1 [Example 38, 4-(6-(2-hydroxy-4-(4-methylpiperazine-1-carbonyl)phenyl)imidazo[1,2-a]pyrazin-3-yl)benzonitrile] |  | 
7 | > 7.00 | > 6.00 | CC1(N)CCN(C(=O)c2ccc(-c3cn4c(-c5ccc(C#N)cc5)cnc4cn3)cc2)CC1 [Example 23, 4-(6-(4-(4-amino-4-methylpiperidine-1-carbonyl)phenyl)imidazo[1,2-a]pyrazin-3-yl)benzonitrile Hydrochloride Salt] |  | 
8 | > 7.00 | > 7.00 | NC(=O)c1ccc(-c2cnc3cnc(-c4ccc(C(=O)N5CCC(N)CC5)cc4)cn23)cc1 [Example 4, 4-(6-(4-(4-aminopiperidine-1-carbonyl)phenyl)imidazo[1,2-a]pyrazin-3-yl)benzamide hydrochloride] |  | 
9 | > 7.00 | > 7.00 | CN(CC(=O)N1CCOCC1)C(=O)c1ccc(-c2ccc3ncc(-c4ccc(C#N)cc4)n3c2)cc1 [Example 101, 4-(3-(4-cyanophenyl)imidazo[1,2-a]pyridin-6-yl)-N-methyl-N-(2-morpholino-2-oxoethyl)benzamide] |  | 
10 | > 7.00 | > 7.00 | CN1CCN(C(=O)c2ccc(-c3ccc4ncc(-c5ccc(C#N)cc5)n4c3)c(F)c2)CC1 [Example 140, 4-(6-(2-fluoro-4-(4-methylpiperazine-1-carbonyl)phenyl)imidazo[1,2-a]pyridin-3-yl)benzonitrile] |  | 
11 | > 7.00 | > 6.00 | CC1(C)CCN(C(=O)c2ccc(-c3cn4c(-c5ccc(C(N)=O)cc5)cnc4cn3)cc2)CC1 [Example 3, 4-(6-(4-(4,4-dimethylpiperidine-1-carbonyl)phenyl)imidazo[1,2-a]pyrazin-3-yl)benzamide] |  | 
12 | > 7.00 | > 7.00 | N#Cc1ccc(-c2cnc3ccc(-c4ccc(C(=O)N5CCCOCC5)cc4)cn23)cc1 [Example 97] |  | 
13 | > 7.00 | > 7.00 | CN1CCN(C2CCN(C(=O)c3ccc(-c4ccn5ncc(-c6ccc(C#N)cc6)c5n4)cc3)CC2)CC1 [Example 179, 4-(5-(4-(4-(4-methylpiperazin-1-yl)piperidine-1-carbonyl)phenyl)pyrazolo[1,5-a]pyrimidin-3-yl)benzonitrile] |  | 
14 | > 6.00 | > 6.00 | N#Cc1ccc(-c2cnc3cnc(-c4ccc(C(=O)N5CCC(N)CC5)c(F)c4)cn23)cc1 [Example 29, 4-(6-(4-(4-aminopiperidine-1-carbonyl)-3-fluorophenyl)imidazo[1,2-a]pyrazin-3-yl)benzonitrile] |  | 
15 | > 6.00 | > 6.00 | NC(=O)c1ccc(-c2cn3c(-c4ccc(Cl)cc4)cnc3cn2)cc1 [Example 42, 4-(3-(4-chlorophenyl)imidazo[1,2-a]pyrazin-6-yl)benzamide] |  | 
16 | > 7.00 | > 7.00 | CN1CCN(C(=O)c2ccc(-c3ccc4ncc(-c5ccc(C#N)cc5)n4n3)cc2)CC1=O [Example 69, 4-(6-(4-(4-methyl-3-oxopiperazine-1-carbonyl)phenyl)imidazo[1,2-b]pyridazin-3-yl)benzonitrile] |  | 
17 | > 7.00 | > 7.00 | N#Cc1ccc(-c2cnc3ccc(-c4ccc(C(=O)N5CCC(N)CC5)cc4)cn23)cc1 [Example 109, 4-(6-(4-(4-aminopiperidine-1-carbonyl)phenyl)imidazo[1,2-a]pyridin-3-yl)benzonitrile] |  | 
18 | > 7.00 | > 7.00 | CN1CCN(C(=O)c2ccc(-c3ccc4ncc(-c5ccc(C#N)cc5)n4c3)cc2N)CC1 [Example 146, 4-(6-(3-amino-4-(4-methylpiperazine-1-carbonyl)phenyl)imidazo[1,2-a]pyridin-3-yl)benzonitrile] |  | 
19 | > 7.00 | > 7.00 | CCN(CC)C1(C)CCN(C(=O)c2ccc(-c3ccc4ncc(-c5ccc(C#N)cc5)n4c3)cc2)CC1 [Example 100, 4-(6-(4-(4-(diethylamino)-4-methylpiperidine-1-carbonyl)phenyl)imidazo[1,2-a]pyridin-3-yl)benzonitrile] |  | 
20 | > 7.00 | > 7.00 | N#Cc1ccc(-c2cnc3ccc(-c4ccc(C(=O)N5CCC6(CCCCN6)CC5)cc4)cn23)cc1 [Example 117, 4-(6-(4-(1,9-diazaspiro[5.5]undecane-9-carbonyl)phenyl)imidazo[1,2-a]pyridin-3-yl)benzonitrile] |  | 
21 | > 7.00 | > 7.00 | NC1CCN(C(=O)c2ccc(-c3ccc4ncc(-c5ccc(Cl)cc5)n4c3)cc2)CC1 [Example 174, (4-aminopiperidin-1-yl)(4-(3-(4-chlorophenyl)imidazo[1,2-a]pyridin-6-yl)phenyl)methanone] |  | 
22 | > 7.00 | > 7.00 | CC(C)N1CCN(C(=O)c2ccc(-c3ccc4ncc(-c5ccc(C#N)cc5)n4n3)cc2)CC1 [Example 59, 4-(6-(4-(4-isopropylpiperazine-1-carbonyl)phenyl)imidazo[1,2-b]pyridazin-3-yl)benzonitrile] |  | 

Row | Compound | pIC50 (MNK2; [1]) | pIC50 (MNK1; [2]) | pIC50 (MNK2) | pIC50 (MNK1)
23 | Cc1cc2ncc(-c3ccc(C#N)cc3)n2cc1-c1ccc(C(=O)N2CCC(C)(N)CC2)cc1 [Example 137, 4-(6-(4-(4-amino-4-methylpiperidine-1-carbonyl)phenyl)-7-methylimidazo[1,2-a]pyridin-3-yl)benzonitrile] | > 7.00 | > 6.00 |  | 
24 | CC(=O)Nc1cc(-c2ccc3ncc(-c4ccc(C#N)cc4)n3n2)ccc1C(=O)N1CCC(N(C)C)CC1 [Example 81, N-(5-(3-(4-cyanophenyl)imidazo[1,2-b]pyridazin-6-yl)-2-(4-(dimethylamino)piperidine-1-carbonyl)phenyl)acetamide] | > 7.00 | > 7.00 |  | 
25 | COC1(C)CCN(C(=O)c2ccc(-c3ccc4ncc(-c5ccc(C#N)cc5)n4c3)cc2)CC1 [Example 172, 4-(6-(4-(4-methoxy-4-methylpiperidine-1-carbonyl)phenyl)imidazo[1,2-a]pyridin-3-yl)benzonitrile] | > 7.00 | > 7.00 |  | 
